Several values for one entry are separate records, joined by “and”; a condition that tells them apart may be missing. Equal values may be shown once.
Key:
[1] = target: T1, ALK2/ACVR1 (Homo sapiens, UniProt Q04771); assay: HotSpot kinase assay; format: biochemical; details: read-out: % Enzyme Activity (relative to DMSO controls)
T1 construct: purchased Reaction Biology Corporation

[2] = target: T2, CAMK2d (Homo sapiens, UniProt Q13557); assay: HotSpot kinase assay; format: biochemical; details: read-out: % Enzyme Activity (relative to DMSO controls)
T2 construct: purchased Reaction Biology Corporation

[3] = target: T3, CDC7/DBF4 (Homo sapiens, UniProt O00311); assay: HotSpot kinase assay; format: biochemical; details: read-out: % Enzyme Activity (relative to DMSO controls)
T3 construct: purchased Reaction Biology Corporation

[4] = target: T4, CDK1/cyclin E (Homo sapiens, UniProt P06493); assay: HotSpot kinase assay; format: biochemical; details: read-out: % Enzyme Activity (relative to DMSO controls)
T4 construct: purchased Reaction Biology Corporation

[5] = target: T5, CDK18/cyclin Y (PCTK3) (Homo sapiens, UniProt Q07002); assay: HotSpot kinase assay; format: biochemical; details: read-out: % Enzyme Activity (relative to DMSO controls)
T5 construct: purchased Reaction Biology Corporation

[6] = target: T6, CDK2/cyclin O (Homo sapiens, UniProt P24941); assay: HotSpot kinase assay; format: biochemical; details: read-out: % Enzyme Activity (relative to DMSO controls)
T6 construct: purchased Reaction Biology Corporation

[7] = target: T7, CDK7/cyclin H (Homo sapiens, UniProt P50613); assay: HotSpot kinase assay; format: biochemical; details: read-out: % Enzyme Activity (relative to DMSO controls)
T7 construct: purchased Reaction Biology Corporation

[8] = target: T8, CDK8/cyclin C (Homo sapiens, UniProt P49336); assay: HotSpot kinase assay; format: biochemical; details: read-out: % Enzyme Activity (relative to DMSO controls)
T8 construct: purchased Reaction Biology Corporation

[9] = target: T9, CK1g1 (Homo sapiens, UniProt Q9HCP0); assay: HotSpot kinase assay; format: biochemical; details: read-out: % Enzyme Activity (relative to DMSO controls)
T9 construct: purchased Reaction Biology Corporation

[10] = target: T10, DAPK2 (Homo sapiens, UniProt Q9UIK4); assay: HotSpot kinase assay; format: biochemical; details: read-out: % Enzyme Activity (relative to DMSO controls)
T10 construct: purchased Reaction Biology Corporation

[11] = target: T11, EPHA7 (Homo sapiens, UniProt Q15375); assay: HotSpot kinase assay; format: biochemical; details: read-out: % Enzyme Activity (relative to DMSO controls)
T11 construct: purchased Reaction Biology Corporation

[12] = target: T12, ERBB4/HER4 (Homo sapiens, UniProt Q15303); assay: HotSpot kinase assay; format: biochemical; details: read-out: % Enzyme Activity (relative to DMSO controls)
T12 construct: purchased Reaction Biology Corporation

[13] = target: T13, ERK7/MAPK15 (Homo sapiens, UniProt Q8TD08); assay: HotSpot kinase assay; format: biochemical; details: read-out: % Enzyme Activity (relative to DMSO controls)
T13 construct: purchased Reaction Biology Corporation

[14] = target: T14, GRK6 (Homo sapiens, UniProt P43250); assay: HotSpot kinase assay; format: biochemical; details: read-out: % Enzyme Activity (relative to DMSO controls)
T14 construct: purchased Reaction Biology Corporation

[15] = target: T15, JNK2 (Homo sapiens, UniProt P45984); assay: HotSpot kinase assay; format: biochemical; details: read-out: % Enzyme Activity (relative to DMSO controls)
T15 construct: purchased Reaction Biology Corporation

[16] = target: T16, KSR1 (Homo sapiens, UniProt Q8IVT5); assay: biochemical; details: read-out: % Enzyme Activity (relative to DMSO controls)
T16 construct: purchased Reaction Biology Corporation

[17] = target: T17, LCK2/ICK (Homo sapiens, UniProt Q9UPZ9); assay: HotSpot kinase assay; format: biochemical; details: read-out: % Enzyme Activity (relative to DMSO controls)
T17 construct: purchased Reaction Biology Corporation

[18] = target: T18, LIMK2 (Homo sapiens, UniProt P53671); assay: HotSpot kinase assay; format: biochemical; details: read-out: % Enzyme Activity (relative to DMSO controls)
T18 construct: purchased Reaction Biology Corporation

[19] = target: T19, MEKK1 (Homo sapiens, UniProt Q13233); assay: HotSpot kinase assay; format: biochemical; details: read-out: % Enzyme Activity (relative to DMSO controls)
T19 construct: purchased Reaction Biology Corporation

[20] = target: T20, PAK1 (Homo sapiens, UniProt Q13153); assay: HotSpot kinase assay; format: biochemical; details: read-out: % Enzyme Activity (relative to DMSO controls)
T20 construct: purchased Reaction Biology Corporation

[21] = target: T21, PDGFRb (Homo sapiens, UniProt P09619); assay: HotSpot kinase assay; format: biochemical; details: read-out: % Enzyme Activity (relative to DMSO controls)
T21 construct: purchased Reaction Biology Corporation

[22] = target: T22, PKCIOTA (Homo sapiens, UniProt P41743); assay: HotSpot kinase assay; format: biochemical; details: read-out: % Enzyme Activity (relative to DMSO controls)
T22 construct: purchased Reaction Biology Corporation

[23] = target: T23, SBK1 (Homo sapiens, UniProt Q52WX2); assay: HotSpot kinase assay; format: biochemical; details: read-out: % Enzyme Activity (relative to DMSO controls)
T23 construct: purchased Reaction Biology Corporation

[24] = target: T24, SGK1 (Homo sapiens, UniProt O00141); assay: HotSpot kinase assay; format: biochemical; details: read-out: % Enzyme Activity (relative to DMSO controls)
T24 construct: purchased Reaction Biology Corporation

[25] = target: T25, SNARK/NUAK2 (Homo sapiens, UniProt Q9H093); assay: HotSpot kinase assay; format: biochemical; details: read-out: % Enzyme Activity (relative to DMSO controls)
T25 construct: purchased Reaction Biology Corporation

[26] = target: T26, STK38/NDR1 (Homo sapiens, UniProt Q15208); assay: HotSpot kinase assay; format: biochemical; details: read-out: % Enzyme Activity (relative to DMSO controls)
T26 construct: purchased Reaction Biology Corporation

[27] = target: T27, TESK1 (Homo sapiens, UniProt Q15569); assay: HotSpot kinase assay; format: biochemical; details: read-out: % Enzyme Activity (relative to DMSO controls)
T27 construct: purchased Reaction Biology Corporation

[28] = target: T28, TRKB (Homo sapiens, UniProt Q16620); assay: HotSpot kinase assay; format: biochemical; details: read-out: % Enzyme Activity (relative to DMSO controls)
T28 construct: purchased Reaction Biology Corporation

[29] = target: T29, TXK (Homo sapiens, UniProt P42681); assay: HotSpot kinase assay; format: biochemical; details: read-out: % Enzyme Activity (relative to DMSO controls)
T29 construct: purchased Reaction Biology Corporation

[30] = target: T30, WNK2 (Homo sapiens, UniProt Q9Y3S1); assay: HotSpot kinase assay; format: biochemical; details: read-out: % Enzyme Activity (relative to DMSO controls)
T30 construct: purchased Reaction Biology Corporation

[31] = target: T31, YES/YES1 (Homo sapiens, UniProt P07947); assay: HotSpot kinase assay; format: biochemical; details: read-out: % Enzyme Activity (relative to DMSO controls)
T31 construct: purchased Reaction Biology Corporation

[32] = target: T32, EIF2AK3 (Homo sapiens, UniProt Q9NZJ5); assay: HotSpot kinase assay; format: biochemical; details: read-out: % Enzyme Activity (relative to DMSO controls)
T32 construct: purchased Reaction Biology Corporation

[33] = test system: HSV-2(G); assay: synchronized infection (entry) assay, CaSki; format: cell-based
Description: To quantify viral entry, cells were synchronously infected by allowing virus to bind to cells at 4°C for 4 h, washed, and then transferred to 37 °C. CIMSS or control DMSO was added at the time of temperature shift. At indicated times post-temperature shift, the cells were treated with a low pH buffer to inactivate virus that had not penetrated, washed, overlaid with medium containing methyl cellulose and viral plaques were counted at 48 h. Entry was also assessed by immunoblotting nuclear extracts for VP16. […] Nuclear extracts were prepared after 1 h and analyzed by western blot with antibodies targeting VP16, histone H1 and golgin-97[5]. The non-nuclear fraction was also probed for golgin-97 as a positive control. […] After 1 or 4 h of incubation, the cells were fixed. Plasma membranes were stained using Image -IT^TM LIVE Plasma Membrane kit and nuclei were stained with DAPI (Thermo Fisher Scientific, Cat 134406). The percentage of GFP + nuclei was determined by counting ~200 cells over 3–4 fields. Images were obtained with Leica SP8 microscope (objective 63 × 1.4); xz images were captured with optical slice 0.6 µm, 25–30 slices per image.

[34] = test system: HSV-2(G); assay: HSV binding assay (gD western blot), HaCat cells; format: cell-based; details: 10 μM, 4 h at 4 °C
Description: After 48 h incubation, plaques were counted by immunoassay using an anti–human IgG antibody peroxidase conjugate (PA1-86064, Thermo Fisher)[33]. […] Western blots were prepared and probed for gD as a marker of bound virus and β-actin as a control.

[35] = test system: PtdS and Akt; assay: translocation of PtdS and Akt to the outer leaflet (microscopy), HSV-2 infected HaCat; format: cell-based, human; details: 10µM

T9 sequence (Q9HCP0 whole entry): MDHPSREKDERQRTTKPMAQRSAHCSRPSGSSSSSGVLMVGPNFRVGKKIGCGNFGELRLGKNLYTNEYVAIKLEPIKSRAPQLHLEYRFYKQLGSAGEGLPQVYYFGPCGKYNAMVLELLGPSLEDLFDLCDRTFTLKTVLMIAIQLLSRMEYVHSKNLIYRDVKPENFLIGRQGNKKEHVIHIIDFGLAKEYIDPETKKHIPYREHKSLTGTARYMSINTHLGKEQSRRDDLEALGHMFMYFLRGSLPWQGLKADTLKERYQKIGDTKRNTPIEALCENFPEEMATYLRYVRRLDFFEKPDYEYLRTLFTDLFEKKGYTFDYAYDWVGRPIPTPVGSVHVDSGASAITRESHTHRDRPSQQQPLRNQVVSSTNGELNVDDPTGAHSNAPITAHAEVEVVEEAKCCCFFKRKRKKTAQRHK
T1 sequence (Q04771 21-509): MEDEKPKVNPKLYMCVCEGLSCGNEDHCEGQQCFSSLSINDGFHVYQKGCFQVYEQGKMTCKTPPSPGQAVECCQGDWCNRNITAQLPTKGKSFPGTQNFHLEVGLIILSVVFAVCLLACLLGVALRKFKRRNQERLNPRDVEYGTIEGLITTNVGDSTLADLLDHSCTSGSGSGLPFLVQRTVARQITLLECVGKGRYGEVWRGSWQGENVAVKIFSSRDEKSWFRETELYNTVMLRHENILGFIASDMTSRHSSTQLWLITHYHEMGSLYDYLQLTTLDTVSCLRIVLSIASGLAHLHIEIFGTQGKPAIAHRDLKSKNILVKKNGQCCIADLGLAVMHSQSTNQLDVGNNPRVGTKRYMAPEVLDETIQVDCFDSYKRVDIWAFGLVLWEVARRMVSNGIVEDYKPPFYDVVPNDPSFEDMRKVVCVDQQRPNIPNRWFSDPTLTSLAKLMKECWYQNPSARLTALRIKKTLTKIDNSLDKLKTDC
T18 sequence (P53671 whole entry): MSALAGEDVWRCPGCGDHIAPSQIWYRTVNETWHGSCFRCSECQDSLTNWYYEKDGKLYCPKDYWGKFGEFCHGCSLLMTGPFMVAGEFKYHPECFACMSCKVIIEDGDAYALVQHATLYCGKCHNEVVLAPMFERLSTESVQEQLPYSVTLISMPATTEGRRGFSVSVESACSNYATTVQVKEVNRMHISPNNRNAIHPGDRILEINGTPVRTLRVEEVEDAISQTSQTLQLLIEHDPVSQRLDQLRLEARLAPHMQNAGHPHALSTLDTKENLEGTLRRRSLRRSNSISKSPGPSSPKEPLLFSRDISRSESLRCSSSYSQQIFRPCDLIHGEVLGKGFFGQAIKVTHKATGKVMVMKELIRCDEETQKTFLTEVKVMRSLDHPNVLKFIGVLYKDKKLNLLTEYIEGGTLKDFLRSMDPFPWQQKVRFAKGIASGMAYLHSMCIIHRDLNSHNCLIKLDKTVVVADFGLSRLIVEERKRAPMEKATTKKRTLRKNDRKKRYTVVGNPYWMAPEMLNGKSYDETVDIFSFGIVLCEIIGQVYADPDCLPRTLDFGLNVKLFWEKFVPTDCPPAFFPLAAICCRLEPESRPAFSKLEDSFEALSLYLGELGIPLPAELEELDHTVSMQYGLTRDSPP
T25 sequence (Q9H093 whole entry): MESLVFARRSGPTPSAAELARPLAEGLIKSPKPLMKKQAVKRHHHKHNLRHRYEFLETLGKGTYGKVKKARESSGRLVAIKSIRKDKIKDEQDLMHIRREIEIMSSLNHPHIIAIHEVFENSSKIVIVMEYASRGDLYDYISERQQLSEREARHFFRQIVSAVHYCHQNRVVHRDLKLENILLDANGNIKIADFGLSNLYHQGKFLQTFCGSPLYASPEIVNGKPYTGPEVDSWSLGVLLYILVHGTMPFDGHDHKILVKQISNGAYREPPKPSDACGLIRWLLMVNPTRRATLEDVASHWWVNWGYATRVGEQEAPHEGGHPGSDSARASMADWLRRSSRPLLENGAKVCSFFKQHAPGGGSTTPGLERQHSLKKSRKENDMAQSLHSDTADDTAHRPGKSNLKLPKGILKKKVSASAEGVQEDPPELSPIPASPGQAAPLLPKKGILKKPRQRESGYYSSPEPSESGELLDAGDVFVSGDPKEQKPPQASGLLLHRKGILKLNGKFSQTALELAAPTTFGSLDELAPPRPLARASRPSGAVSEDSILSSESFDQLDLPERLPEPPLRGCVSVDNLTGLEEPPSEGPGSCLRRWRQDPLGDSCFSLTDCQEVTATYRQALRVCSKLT
T29 sequence (P42681 whole entry): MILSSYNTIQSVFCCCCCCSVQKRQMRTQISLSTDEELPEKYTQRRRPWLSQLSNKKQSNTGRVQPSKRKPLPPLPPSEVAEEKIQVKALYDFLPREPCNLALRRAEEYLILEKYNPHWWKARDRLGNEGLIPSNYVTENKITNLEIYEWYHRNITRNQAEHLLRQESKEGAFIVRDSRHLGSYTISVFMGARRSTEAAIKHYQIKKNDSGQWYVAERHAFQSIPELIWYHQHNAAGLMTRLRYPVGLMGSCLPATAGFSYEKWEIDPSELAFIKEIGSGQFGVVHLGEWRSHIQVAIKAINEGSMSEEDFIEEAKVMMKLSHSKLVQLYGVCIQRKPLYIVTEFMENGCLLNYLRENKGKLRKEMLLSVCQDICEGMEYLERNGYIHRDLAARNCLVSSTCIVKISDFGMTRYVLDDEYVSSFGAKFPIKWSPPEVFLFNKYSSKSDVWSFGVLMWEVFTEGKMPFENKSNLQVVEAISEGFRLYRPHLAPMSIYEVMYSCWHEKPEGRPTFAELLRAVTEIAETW
T28 sequence (Q16620 32-822): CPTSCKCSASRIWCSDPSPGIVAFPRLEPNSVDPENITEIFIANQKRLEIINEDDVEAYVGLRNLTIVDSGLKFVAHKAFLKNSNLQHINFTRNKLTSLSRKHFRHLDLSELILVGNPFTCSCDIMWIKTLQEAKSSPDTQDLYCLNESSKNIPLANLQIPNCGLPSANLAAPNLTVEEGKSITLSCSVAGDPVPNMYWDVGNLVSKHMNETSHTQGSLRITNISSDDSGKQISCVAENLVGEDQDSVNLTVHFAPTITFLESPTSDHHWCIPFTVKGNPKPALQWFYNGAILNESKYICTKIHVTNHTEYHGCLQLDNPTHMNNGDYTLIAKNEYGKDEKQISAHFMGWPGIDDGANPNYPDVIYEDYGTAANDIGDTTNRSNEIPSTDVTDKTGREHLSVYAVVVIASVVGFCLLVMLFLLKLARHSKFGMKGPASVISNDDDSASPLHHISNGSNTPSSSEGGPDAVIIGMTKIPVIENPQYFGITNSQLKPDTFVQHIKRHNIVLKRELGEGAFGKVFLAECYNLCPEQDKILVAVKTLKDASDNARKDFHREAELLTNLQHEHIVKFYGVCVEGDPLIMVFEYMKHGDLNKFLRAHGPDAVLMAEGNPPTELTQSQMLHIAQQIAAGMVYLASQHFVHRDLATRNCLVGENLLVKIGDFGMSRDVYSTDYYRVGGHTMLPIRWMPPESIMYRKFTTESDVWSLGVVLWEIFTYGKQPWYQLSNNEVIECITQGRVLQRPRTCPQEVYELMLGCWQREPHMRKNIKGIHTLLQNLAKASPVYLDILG
T22 sequence (P41743 whole entry): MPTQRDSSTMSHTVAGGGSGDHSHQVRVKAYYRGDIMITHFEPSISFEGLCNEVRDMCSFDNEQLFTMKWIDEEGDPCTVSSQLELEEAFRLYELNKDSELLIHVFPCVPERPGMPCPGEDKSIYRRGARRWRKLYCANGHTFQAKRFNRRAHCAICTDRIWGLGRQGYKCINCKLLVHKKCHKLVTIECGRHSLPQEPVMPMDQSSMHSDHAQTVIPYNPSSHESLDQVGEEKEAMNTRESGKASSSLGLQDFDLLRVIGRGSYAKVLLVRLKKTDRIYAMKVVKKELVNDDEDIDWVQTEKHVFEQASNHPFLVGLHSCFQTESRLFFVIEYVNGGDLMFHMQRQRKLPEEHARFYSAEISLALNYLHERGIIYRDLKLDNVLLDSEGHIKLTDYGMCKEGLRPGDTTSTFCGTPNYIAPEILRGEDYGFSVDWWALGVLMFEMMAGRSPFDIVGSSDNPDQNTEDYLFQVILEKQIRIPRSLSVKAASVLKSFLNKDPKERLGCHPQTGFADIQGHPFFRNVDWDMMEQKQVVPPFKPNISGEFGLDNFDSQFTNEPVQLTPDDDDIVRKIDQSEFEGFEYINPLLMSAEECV
T2 sequence (Q13557 whole entry): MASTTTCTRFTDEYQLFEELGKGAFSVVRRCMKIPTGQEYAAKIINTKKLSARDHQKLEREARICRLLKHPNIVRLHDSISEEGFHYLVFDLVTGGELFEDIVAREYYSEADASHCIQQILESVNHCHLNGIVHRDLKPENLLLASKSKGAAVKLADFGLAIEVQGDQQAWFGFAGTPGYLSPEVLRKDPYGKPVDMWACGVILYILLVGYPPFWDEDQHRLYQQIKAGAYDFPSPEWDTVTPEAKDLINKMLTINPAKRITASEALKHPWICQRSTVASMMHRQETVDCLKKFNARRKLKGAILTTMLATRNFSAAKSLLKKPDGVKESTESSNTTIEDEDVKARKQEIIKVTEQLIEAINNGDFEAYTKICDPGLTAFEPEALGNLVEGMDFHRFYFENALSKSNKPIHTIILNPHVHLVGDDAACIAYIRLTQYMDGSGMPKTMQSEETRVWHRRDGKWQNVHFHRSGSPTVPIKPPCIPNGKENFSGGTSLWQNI
T10 sequence (Q9UIK4 whole entry): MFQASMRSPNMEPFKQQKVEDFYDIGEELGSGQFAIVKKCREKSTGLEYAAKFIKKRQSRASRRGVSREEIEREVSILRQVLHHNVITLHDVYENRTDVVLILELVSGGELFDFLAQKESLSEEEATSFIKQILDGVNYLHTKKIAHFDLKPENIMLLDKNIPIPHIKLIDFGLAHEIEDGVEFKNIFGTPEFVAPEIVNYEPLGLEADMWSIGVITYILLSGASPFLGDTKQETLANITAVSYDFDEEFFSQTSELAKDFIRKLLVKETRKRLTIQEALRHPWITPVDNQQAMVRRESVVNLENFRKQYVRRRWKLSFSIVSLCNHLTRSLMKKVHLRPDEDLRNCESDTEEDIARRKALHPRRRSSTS

CO[C@@H]1[C@H](N(C)C(=O)CCC(=O)NCc2cn(CCCS(=O)(=O)O)nn2)C[C@H]2O[C@]1(C)n1c3ccccc3c3c4c(c5c6ccccc6n2c5c31)C(=O)NC4 [CIMSS]
remaining activity at 10 µM [1]: 72.7%
remaining activity at 10 µM [2]: 1.33%
remaining activity at 10 µM [3]: 3.98%
remaining activity at 10 µM [4]: 18%
remaining activity at 10 µM [5]: 41.3%
remaining activity at 10 µM [6]: 4.97%
remaining activity at 10 µM [7]: 65.6%
remaining activity at 10 µM [8]: 10.1%
remaining activity at 10 µM [9]: 95.9%
remaining activity at 10 µM [10]: 11.3%
remaining activity at 10 µM [11]: 6.91%
remaining activity at 10 µM [12]: 25%
remaining activity at 10 µM [13]: 27.9%
remaining activity at 10 µM [14]: 8.36%
remaining activity at 10 µM [15]: 42.3%
remaining activity at 10 µM [16]: 90.8%
remaining activity at 10 µM [17]: 4.57%
remaining activity at 10 µM [18]: 67.4%
remaining activity at 10 µM [19]: 67%
remaining activity at 10 µM [20]: 8.08%
remaining activity at 10 µM [21]: 1.9%
remaining activity at 10 µM [22]: 31.5%
remaining activity at 10 µM [23]: 78.8%
remaining activity at 10 µM [24]: 13.4%
remaining activity at 10 µM [25]: 2.16%
remaining activity at 10 µM [26]: 8.29%
remaining activity at 10 µM [27]: 83%
remaining activity at 10 µM [28]: 1.79%
remaining activity at 10 µM [29]: 3.64%
remaining activity at 10 µM [30]: 71.9%
remaining activity at 10 µM [31]: 1.4%
remaining activity at 10 µM [32]: 61.6%
plaques counted at 48 h ([33]; 0.5 h post-temperature shift (Fig 3b source data)): 49 and 51
plaques counted at 48 h ([33]; 1 h): 48 and 46
plaques counted at 48 h ([33]; 2 h): 52 and 37
HSV binding to cells [34]: did not block
translocation of PtdS and Akt to the outer leaflet of the plasma membrane [35]: did not block

Source: article PMC9569420 (Communications Biology, 2022)
